The record followed here is US12202845.

For the series the following is noted: from CCn1c(-c2cccnc2[C@H](C)OC)c(CC(C)(C)CO)c2cc(C3=CCCN(CC(NC(=O)OC(C)(C)C)C(=O)N4CCC[C@@H](C(=O)O)N4)C3)ccc21; ester bond; 18-membered ring; EDCI.HCl/HOBt/DIPEA; DCM; 7.1 mM; 30.0 °C; 16.0 h.

In turn, `CCn1c(-c2cccnc2[C@H](C)OC)c2c3cc(ccc31)C1=CCCN(C1)CC(NC(=O)OC(C)(C)C)C(=O)N1CCC[C@H](N1)C(=O)OCC(C)(C)C2` (stereo partly shown) registered a ring closure, isolated yield of 40%.
